The results in this text go back to paper PMC3541233 (PLoS ONE, 2013).

In this test the target is T1, AmPDH (pyranose dehydrogenase, PDH) (Macropsalliota meleagris, UniProt Q3L245).
T1 construct: gene pdh1; for crystals deglycosylated with alpha-mannosidase (577 residues)
The test is described as follows: anaerobic reduction of enzyme FAD, absorption spectra. The format is biochemical. Particulars: 20 µM oxidized enzyme, 20 µM substrate, 100 mM NaH2PO4 pH 7.5, 25 °C; C2 accessible.

T1 sequence (Q3L245 26-602): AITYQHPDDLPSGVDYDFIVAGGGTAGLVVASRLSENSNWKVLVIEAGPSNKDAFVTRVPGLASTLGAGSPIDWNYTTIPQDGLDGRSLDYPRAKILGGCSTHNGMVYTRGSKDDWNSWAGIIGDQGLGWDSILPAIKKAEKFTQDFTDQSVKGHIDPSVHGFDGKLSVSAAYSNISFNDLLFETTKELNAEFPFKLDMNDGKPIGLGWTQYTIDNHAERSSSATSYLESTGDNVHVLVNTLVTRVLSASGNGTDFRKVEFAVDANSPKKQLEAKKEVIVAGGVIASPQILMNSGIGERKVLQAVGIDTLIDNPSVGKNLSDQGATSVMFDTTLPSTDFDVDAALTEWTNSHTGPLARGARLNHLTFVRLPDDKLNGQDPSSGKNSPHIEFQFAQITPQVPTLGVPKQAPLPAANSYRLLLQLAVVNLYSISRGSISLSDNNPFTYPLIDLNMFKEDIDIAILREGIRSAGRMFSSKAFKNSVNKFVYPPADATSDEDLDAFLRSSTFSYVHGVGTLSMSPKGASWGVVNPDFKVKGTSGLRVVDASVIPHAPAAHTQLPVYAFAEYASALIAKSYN

Turning to `OC[C@H]1OC(O)[C@H](O)[C@@H](F)[C@@H]1O` (stereo partly shown), the “anaerobic reduction of enzyme FAD, absorption spectra” value is on record as “showing that AmPDH was rapidly reduced, presumably by a hydride moiety at glucose C2”.
